Bridge positions count the residues as written; N and C are the ends. Square brackets hold non-standard residues; d marks the D form. Peptide text beside a SMILES is read from it. 1Nal = N[C@@H](Cc1cccc2ccccc12)C(=O)O
Key:
human Kv1.3 (CHO) = target: T1, human Kv1.3 (CHO) (Homo sapiens, UniProt P22001); assay: cell-based
T1 construct: expressed in transfected cells

human Kv1.1 (HEK293) = target: T2, human Kv1.1 (HEK293) (Homo sapiens, UniProt Q09470); assay: cell-based
T2 construct: expressed in transfected cells; host or cells: HEK293
T2 sequence (Q09470 whole entry): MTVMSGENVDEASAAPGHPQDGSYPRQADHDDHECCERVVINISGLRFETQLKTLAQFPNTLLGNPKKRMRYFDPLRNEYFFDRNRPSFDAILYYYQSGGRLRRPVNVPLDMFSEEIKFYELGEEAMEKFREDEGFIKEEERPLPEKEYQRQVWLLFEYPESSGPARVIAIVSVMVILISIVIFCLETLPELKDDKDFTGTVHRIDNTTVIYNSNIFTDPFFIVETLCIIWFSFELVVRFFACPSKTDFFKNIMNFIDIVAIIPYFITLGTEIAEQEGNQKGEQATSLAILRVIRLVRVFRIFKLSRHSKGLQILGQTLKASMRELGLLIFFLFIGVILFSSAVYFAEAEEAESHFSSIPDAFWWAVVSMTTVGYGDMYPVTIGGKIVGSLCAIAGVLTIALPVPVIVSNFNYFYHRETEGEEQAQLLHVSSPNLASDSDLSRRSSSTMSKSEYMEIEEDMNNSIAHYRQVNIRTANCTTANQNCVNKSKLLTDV

T1 sequence (P22001 whole entry): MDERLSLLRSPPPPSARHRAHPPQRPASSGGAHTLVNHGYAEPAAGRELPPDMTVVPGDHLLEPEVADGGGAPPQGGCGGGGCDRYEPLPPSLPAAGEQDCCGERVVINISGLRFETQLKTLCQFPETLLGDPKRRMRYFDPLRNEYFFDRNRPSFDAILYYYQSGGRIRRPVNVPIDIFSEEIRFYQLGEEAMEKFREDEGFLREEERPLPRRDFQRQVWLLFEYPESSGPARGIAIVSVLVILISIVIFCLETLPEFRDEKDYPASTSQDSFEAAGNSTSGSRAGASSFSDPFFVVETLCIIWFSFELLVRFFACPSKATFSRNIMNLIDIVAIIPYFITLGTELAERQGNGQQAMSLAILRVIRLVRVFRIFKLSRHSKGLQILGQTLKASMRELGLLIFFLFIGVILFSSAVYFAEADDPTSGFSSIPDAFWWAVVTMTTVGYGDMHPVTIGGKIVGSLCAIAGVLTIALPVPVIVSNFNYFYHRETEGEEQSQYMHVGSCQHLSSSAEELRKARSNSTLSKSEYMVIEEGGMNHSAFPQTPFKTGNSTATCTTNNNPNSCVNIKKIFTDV

SMILES	IC50 (human Kv1.3 (CHO)) [nM]	IC50 (human Kv1.1 (HEK293)) [nM]
CC[C@H](C)[C@@H]1NC(=O)[C@H](CCCCN)NC(=O)[C@@H](NC(=O)[C@H](CCCCN)NC(=O)[C@@H](NC(=O)[C@H](CC(N)=O)NC(=O)[C@@H](NC(=O)[C@@H](NC(=O)[C@@H](NC(=O)CN)C(C)C)[C@@H](C)CC)[C@@H](C)CC)C(C)C)CSSC[C@@H]2NC(=O)[C@H](CCCCN)NC(=O)CNC(=O)[C@H](Cc3ccccc3)NC(=O)[C@H](CCCNC(=N)N)NC(=O)[C@H](Cc3cccc4ccccc34)NC(=O)CNC(=O)[C@H](C)NC(=O)[C@H](CCCCN)NC(=O)[C@H](CCCCN)NC(=O)[C@@H]3CSSC[C@@H](C(=O)N[C@H](C(=O)N4CCC[C@H]4C(=O)N[C@@H](CCCCN)C(=O)O)[C@@H](C)O)NC(=O)[C@H](Cc4c[nH]cn4)NC(=O)[C@H](CSSC[C@H](NC(=O)[C@H](CCC(N)=O)NC(=O)[C@H](CCCNC(=N)N)NC(=O)[C@H](CO)NC1=O)C(=O)N[C@@H](CC(C)C)C(=O)N[C@@H](CCC(=O)O)C(=O)N1CCC[C@H]1C(=O)N3)NC(=O)[C@H](CCCCN)NC(=O)CNC(=O)[C@H](CC(N)=O)NC(=O)[C@H](CCSC)NC2=O [M23Nal] (H-GVIINVKCKISRQCLEPCKKAG[1Nal]RFGKCMNGKCHCTPK-OH; disulfide 8-28, 14-33, 18-35)	0.036	0.0644
CC[C@H](C)[C@@H]1NC(=O)[C@H](CCCCN)NC(=O)[C@@H](NC(=O)[C@H](CCCCN)NC(=O)[C@@H](NC(=O)[C@H](CC(N)=O)NC(=O)[C@@H](NC(=O)[C@H](Cc2cccc3ccccc23)NC(=O)[C@@H](NC(=O)CN)C(C)C)[C@@H](C)CC)C(C)C)CSSC[C@@H]2NC(=O)[C@H](CCCCN)NC(=O)CNC(=O)[C@H](Cc3ccccc3)NC(=O)[C@H](CCCNC(=N)N)NC(=O)[C@H](CCSC)NC(=O)CNC(=O)[C@H](C)NC(=O)[C@H](CCCCN)NC(=O)[C@H](CCCCN)NC(=O)[C@@H]3CSSC[C@@H](C(=O)N[C@H](C(=O)N4CCC[C@H]4C(=O)N[C@@H](CCCCN)C(=O)O)[C@@H](C)O)NC(=O)[C@H](Cc4c[nH]cn4)NC(=O)[C@H](CSSC[C@H](NC(=O)[C@H](CCC(N)=O)NC(=O)[C@H](CCCNC(=N)N)NC(=O)[C@H](CO)NC1=O)C(=O)N[C@@H](CC(C)C)C(=O)N[C@@H](CCC(=O)O)C(=O)N1CCC[C@H]1C(=O)N3)NC(=O)[C@H](CCCCN)NC(=O)CNC(=O)[C@H](CC(N)=O)NC(=O)[C@H](CCSC)NC2=O [I3Nal] (H-GV[1Nal]INVKCKISRQCLEPCKKAGMRFGKCMNGKCHCTPK-OH; disulfide 8-28, 14-33, 18-35)	0.0103	0.00234
CC[C@H](C)[C@@H]1NC(=O)[C@H](CCCCN)NC(=O)[C@@H](NC(=O)[C@H](CCCCN)NC(=O)[C@@H](NC(=O)[C@H](CC(N)=O)NC(=O)[C@@H](NC(=O)[C@@H](NC(=O)[C@@H](NC(=O)CN)C(C)C)[C@@H](C)CC)[C@@H](C)CC)C(C)C)CSSC[C@@H]2NC(=O)[C@H](CCCCN)NC(=O)CNC(=O)[C@H](Cc3ccccc3)NC(=O)[C@H](CCCNC(=N)N)NC(=O)[C@H](CCSC)NC(=O)CNC(=O)[C@H](C)NC(=O)[C@H](CCCCN)NC(=O)[C@H](CCCCN)NC(=O)[C@@H]3CSSC[C@@H](C(=O)N[C@H](C(=O)N4CCC[C@H]4C(=O)N[C@@H](CCCCN)C(=O)O)[C@@H](C)O)NC(=O)[C@H](Cc4c[nH]cn4)NC(=O)[C@H](CSSC[C@H](NC(=O)[C@H](CCC(N)=O)NC(=O)[C@H](CCCNC(=N)N)NC(=O)[C@H](CO)NC1=O)C(=O)N[C@@H](CC(C)C)C(=O)N[C@@H](CCC(=O)O)C(=O)N1CCC[C@H]1C(=O)N3)NC(=O)[C@H](CCCCN)NC(=O)CNC(=O)[C@H](CC(N)=O)NC(=O)[C@H](Cc1cccc3ccccc13)NC2=O [M29Nal] (H-GVIINVKCKISRQCLEPCKKAGMRFGKC[1Nal]NGKCHCTPK-OH; disulfide 8-28, 14-33, 18-35)	0.0935	0.0469
CC[C@H](C)[C@@H]1NC(=O)[C@H](CCCCN)NC(=O)[C@@H](NC(=O)[C@H](CCCCN)NC(=O)[C@H](Cc2cccc3ccccc23)NC(=O)[C@H](CC(N)=O)NC(=O)[C@@H](NC(=O)[C@@H](NC(=O)[C@@H](NC(=O)CN)C(C)C)[C@@H](C)CC)[C@@H](C)CC)CSSC[C@@H]2NC(=O)[C@H](CCCCN)NC(=O)CNC(=O)[C@H](Cc3ccccc3)NC(=O)[C@H](CCCNC(=N)N)NC(=O)[C@H](CCSC)NC(=O)CNC(=O)[C@H](C)NC(=O)[C@H](CCCCN)NC(=O)[C@H](CCCCN)NC(=O)[C@@H]3CSSC[C@@H](C(=O)N[C@H](C(=O)N4CCC[C@H]4C(=O)N[C@@H](CCCCN)C(=O)O)[C@@H](C)O)NC(=O)[C@H](Cc4c[nH]cn4)NC(=O)[C@H](CSSC[C@H](NC(=O)[C@H](CCC(N)=O)NC(=O)[C@H](CCCNC(=N)N)NC(=O)[C@H](CO)NC1=O)C(=O)N[C@@H](CC(C)C)C(=O)N[C@@H](CCC(=O)O)C(=O)N1CCC[C@H]1C(=O)N3)NC(=O)[C@H](CCCCN)NC(=O)CNC(=O)[C@H](CC(N)=O)NC(=O)[C@H](CCSC)NC2=O [V6Nal] (H-GVIIN[1Nal]KCKISRQCLEPCKKAGMRFGKCMNGKCHCTPK-OH; disulfide 8-28, 14-33, 18-35)	0.021	< 0.00152
CC[C@H](C)[C@@H]1NC(=O)[C@H](CCCCN)NC(=O)[C@@H](NC(=O)[C@H](CCCCN)NC(=O)[C@@H](NC(=O)[C@H](CC(N)=O)NC(=O)[C@@H](NC(=O)[C@@H](NC(=O)[C@H](Cc2cccc3ccccc23)NC(=O)CN)[C@@H](C)CC)[C@@H](C)CC)C(C)C)CSSC[C@@H]2NC(=O)[C@H](CCCCN)NC(=O)CNC(=O)[C@H](Cc3ccccc3)NC(=O)[C@H](CCCNC(=N)N)NC(=O)[C@H](CCSC)NC(=O)CNC(=O)[C@H](C)NC(=O)[C@H](CCCCN)NC(=O)[C@H](CCCCN)NC(=O)[C@@H]3CSSC[C@@H](C(=O)N[C@H](C(=O)N4CCC[C@H]4C(=O)N[C@@H](CCCCN)C(=O)O)[C@@H](C)O)NC(=O)[C@H](Cc4c[nH]cn4)NC(=O)[C@H](CSSC[C@H](NC(=O)[C@H](CCC(N)=O)NC(=O)[C@H](CCCNC(=N)N)NC(=O)[C@H](CO)NC1=O)C(=O)N[C@@H](CC(C)C)C(=O)N[C@@H](CCC(=O)O)C(=O)N1CCC[C@H]1C(=O)N3)NC(=O)[C@H](CCCCN)NC(=O)CNC(=O)[C@H](CC(N)=O)NC(=O)[C@H](CCSC)NC2=O [V2Nal] (H-G[1Nal]IINVKCKISRQCLEPCKKAGMRFGKCMNGKCHCTPK-OH; disulfide 8-28, 14-33, 18-35)	0.0116	0.00246
CC[C@H](C)[C@@H]1NC(=O)[C@H](CCCCN)NC(=O)[C@@H](NC(=O)[C@H](CCCCN)NC(=O)[C@@H](NC(=O)[C@H](CC(N)=O)NC(=O)[C@@H](NC(=O)[C@@H](NC(=O)[C@@H](NC(=O)CN)C(C)C)[C@@H](C)CC)[C@@H](C)CC)C(C)C)CSSC[C@@H]2NC(=O)[C@H](CCCCN)NC(=O)CNC(=O)[C@H](Cc3ccccc3)NC(=O)[C@H](CCCNC(=N)N)NC(=O)[C@H](CCSC)NC(=O)CNC(=O)[C@H](C)NC(=O)[C@H](CCCCN)NC(=O)[C@H](CCCCN)NC(=O)[C@@H]3CSSC[C@@H](C(=O)N[C@H](C(=O)N4CCC[C@H]4C(=O)N[C@@H](CCCCN)C(=O)O)[C@@H](C)O)NC(=O)[C@H](Cc4c[nH]cn4)NC(=O)[C@H](CSSC[C@H](NC(=O)[C@H](Cc4cccc5ccccc45)NC(=O)[C@H](CCCNC(=N)N)NC(=O)[C@H](CO)NC1=O)C(=O)N[C@@H](CC(C)C)C(=O)N[C@@H](CCC(=O)O)C(=O)N1CCC[C@H]1C(=O)N3)NC(=O)[C@H](CCCCN)NC(=O)CNC(=O)[C@H](CC(N)=O)NC(=O)[C@H](CCSC)NC2=O [Q13Nal] (H-GVIINVKCKISR[1Nal]CLEPCKKAGMRFGKCMNGKCHCTPK-OH; disulfide 8-28, 14-33, 18-35)	0.0134	< 0.00152
